≈ marks a conversion by molar mass, not a printed value. Where a SMILES comes first, the peptide text is derived from it.
Experiments:
B. subtilis = assay: microbe, parasite or virus in culture; format: cell-based, Bacillus subtilis
How it was run: (§1)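 Broth microdilution in MH medium: strains diluted to 2×10^6 CFU were mixed with equal volumes of twofold serial peptide dilutions in MH medium. MIC was taken as the lowest peptide concentration preventing bacterial growth.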

E. coli [1] = assay: MIC of antibiotic during combined treatment with antimicrobial peptide; format: cell-based, Escherichia coli; conditions: for Antibiotic MIC, Erythromycin / Antibiotic MIC, Linezolid / Antibiotic MIC, Vancomycin: E. coli
How it was run: (§2)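 Read-out is the MIC of each combined solution, obtained from MH-medium dilutions of antibiotic added well by well, with a reversed-condition run as well.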

MDRST 8009 = format: cell-based, Salmonella typhimurium; conditions: agent alone
How it was run: as §1

A. baumannii = assay: MIC of antibiotic during combined treatment with antimicrobial peptide; format: cell-based, Acinetobacter baumannii; conditions: A. baumannii
How it was run: as §2

P. aeruginosa = assay: microbe, parasite or virus in culture; format: cell-based, Pseudomonas aeruginosa
How it was run: as §1

MDREC 1229 = assay: microbe, parasite or virus in culture; format: cell-based, Escherichia coli
How it was run: as §1

E. coli [2] = assay: microbe, parasite or virus in culture; format: cell-based, Escherichia coli; conditions: 16 h
How it was run: as §1

[3] = combined with peptide at 1 μg/ml
[4] = combined with peptide at 2 μg/ml
[5] = combined with peptide at 4 μg/ml
[6] = combined with peptide at 6 μg/ml
[7] = combined with peptide at 8 μg/ml
[8] = combined with peptide at 16 μg/ml
[9] = combined with peptide at 32 μg/ml
[10] = combined with peptide at 64 μg/ml

`CC[C@H](C)[C@H](NC(=O)[C@H](CCCCN)NC(=O)[C@H](Cc1c[nH]c2ccccc12)NC(=O)[C@@H](N)CCCNC(=N)N)C(=O)N[C@@H](Cc1ccccc1)C(=O)N[C@@H](CCCCN)C(=O)N[C@@H](CCCCN)C(=O)N[C@H](C(=O)N1CCC[C@H]1C(=O)N[C@@H](CCCCN)C(=O)N[C@@H](Cc1ccccc1)C(=O)N[C@@H](CC(C)C)C(=O)N[C@@H](Cc1c[nH]cn1)C(=O)N[C@@H](CO)C(=O)N[C@@H](Cc1c[nH]c2ccccc12)C(=O)N[C@@H](CCCCN)C(=O)N[C@@H](CCCCN)C(=O)N[C@@H](Cc1c[nH]c2ccccc12)C(N)=O)[C@@H](C)CC` [PapMA-4, RWK IFK KIP KFL HSW KKW-NH2] (H-RWKIFKKIPKFLHSWKKW-NH2; N-terminus assumed) was tested, and the “Minimal inhibitory concentration MIC” value (B. subtilis) was over 128 µg/mL, the “Synergistic effect of antibacterial activity with existing antibiotics compared with PapMA-1” value (E. coli [1]; E. coli and MDREC1229) was “level similar to that of the PapMA-1 peptide” and the “Antibiotic MIC, Erythromycin” value (E. coli [1]; erythromycin combined with peptide at 1 μg/ml) was 64 µg/mL. For the same compound, the “Antibiotic MIC, Erythromycin” value (E. coli [1]; erythromycin combined with peptide at 2 μg/ml) was 32 µg/mL, the “Antibiotic MIC, Erythromycin” value (E. coli [1]; erythromycin combined with peptide at 4 μg/ml) was 16 µg/mL and the “Antibiotic MIC, Erythromycin” value (E. coli [1]; erythromycin combined with peptide at 6 μg/ml) was 8 µg/mL. For the same compound, the “Antibiotic MIC, Erythromycin” value (E. coli [1]; erythromycin combined with peptide at 8 μg/ml) was 8 µg/mL, the “Antibiotic MIC, Erythromycin” value (E. coli [1]; erythromycin combined with peptide at 16 μg/ml) was 0 µg/mL and the “Antibiotic MIC, Erythromycin” value (E. coli [1]; erythromycin combined with peptide at 32 μg/ml) was 0 µg/mL. For the same compound, the “Antibiotic MIC, Erythromycin” value (E. coli [1]; erythromycin combined with peptide at 64 μg/ml) was 0 µg/mL, the “Antibiotic MIC, Linezolid” value (E. coli [1]; linezolid combined with peptide at 1 μg/ml) was 128 µg/mL and the “Antibiotic MIC, Linezolid” value (E. coli [1]; linezolid combined with peptide at 2 μg/ml) was 64 µg/mL. The “Antibiotic MIC, Linezolid” value (E. coli [1]; linezolid combined with peptide at 4 μg/ml) was 32 µg/mL, the “Antibiotic MIC, Linezolid” value (E. coli [1]; linezolid combined with peptide at 6 μg/ml) was 32 µg/mL and the “Antibiotic MIC, Linezolid” value (E. coli [1]; linezolid combined with peptide at 8 μg/ml) was 16 µg/mL. For the same compound, the “Antibiotic MIC, Linezolid” value (E. coli [1]; linezolid combined with peptide at 16 μg/ml) was 0 µg/mL, the “Antibiotic MIC, Linezolid” value (E. coli [1]; linezolid combined with peptide at 32 μg/ml) was 0 µg/mL and the “Antibiotic MIC, Linezolid” value (E. coli [1]; linezolid combined with peptide at 64 μg/ml) was 0 µg/mL. The “Antibiotic MIC, Vancomycin” value (E. coli [1]; vancomycin combined with peptide at 1 μg/ml) was over 128 µg/mL, the “Antibiotic MIC, Vancomycin” value (E. coli [1]; vancomycin combined with peptide at 2 μg/ml) was over 128 µg/mL and the “Antibiotic MIC, Vancomycin” value (E. coli [1]; vancomycin combined with peptide at 4 μg/ml) was over 128 µg/mL. The “Antibiotic MIC, Vancomycin” value (E. coli [1]; vancomycin combined with peptide at 6 μg/ml) was 128 µg/mL, the “Antibiotic MIC, Vancomycin” value (E. coli [1]; vancomycin combined with peptide at 8 μg/ml) was 32 µg/mL and the “Antibiotic MIC, Vancomycin” value (E. coli [1]; vancomycin combined with peptide at 16 μg/ml) was 0 µg/mL. The “Antibiotic MIC, Vancomycin” value (E. coli [1]; vancomycin combined with peptide at 32 μg/ml) was 0 µg/mL, the “Antibiotic MIC, Vancomycin” value (E. coli [1]; vancomycin combined with peptide at 64 μg/ml) was 0 µg/mL and the “Minimal inhibitory concentration MIC” value (MDRST 8009) was 32 µg/mL (≈ 13 µM). The “Antibiotic MIC, Erythromycin” value (A. baumannii; [3]) was 32 µg/mL, the “Antibiotic MIC, Linezolid” value (A. baumannii; [3]) was over 128 µg/mL and the “Antibiotic MIC, Vancomycin” value (A. baumannii; [3]) was over 128 µg/mL. For the same compound, the “Antibiotic MIC, Erythromycin” value (A. baumannii; [4]) was 16 µg/mL, the “Antibiotic MIC, Linezolid” value (A. baumannii; [4]) was 64 µg/mL and the “Antibiotic MIC, Vancomycin” value (A. baumannii; [4]) was 128 µg/mL. The “Antibiotic MIC, Erythromycin” value (A. baumannii; [5]) was 8 µg/mL, the “Antibiotic MIC, Linezolid” value (A. baumannii; [5]) was 64 µg/mL and the “Antibiotic MIC, Vancomycin” value (A. baumannii; [5]) was 64 µg/mL. The “Antibiotic MIC, Erythromycin” value (A. baumannii; [6]) was 4 µg/mL, the “Antibiotic MIC, Linezolid” value (A. baumannii; [6]) was 32 µg/mL and the “Antibiotic MIC, Vancomycin” value (A. baumannii; [6]) was 64 µg/mL. The “Antibiotic MIC, Erythromycin” value (A. baumannii; [7]) was 4 µg/mL, the “Antibiotic MIC, Linezolid” value (A. baumannii; [7]) was 16 µg/mL and the “Antibiotic MIC, Vancomycin” value (A. baumannii; [7]) was 32 µg/mL. The “Antibiotic MIC, Erythromycin” value (A. baumannii; [8]) was 0 µg/mL, the “Antibiotic MIC, Linezolid” value (A. baumannii; [8]) was 0 µg/mL and the “Antibiotic MIC, Vancomycin” value (A. baumannii; [8]) was 0 µg/mL. For the same compound, the “Antibiotic MIC, Erythromycin” value (A. baumannii; [9]) was 0 µg/mL, the “Antibiotic MIC, Linezolid” value (A. baumannii; [9]) was 0 µg/mL and the “Antibiotic MIC, Vancomycin” value (A. baumannii; [9]) was 0 µg/mL. For the same compound, the “Antibiotic MIC, Erythromycin” value (A. baumannii; [10]) was 0 µg/mL, the “Antibiotic MIC, Linezolid” value (A. baumannii; [10]) was 0 µg/mL and the “Antibiotic MIC, Vancomycin” value (A. baumannii; [10]) was 0 µg/mL. The “Minimal inhibitory concentration MIC” value (P. aeruginosa) was 16 µg/mL (≈ 6.51 µM), the “Minimal inhibitory concentration MIC” value (MDREC 1229) was 32 µg/mL (≈ 13 µM) and the “Minimal inhibitory concentration MIC” value (E. coli [2]) was 16 µg/mL (≈ 6.51 µM).
